Measured values taken from patent EP1925615B1, “Method of fluorine-18 labelling of tropane derivatives” (Orphachem, priority 2006, dated 2008).

Key:
[1] = target: dopamine transporter (DAT); settings: dopamine transporter (DAT) ligand; cited from earlier work
serotonine transporter = serotonine transporter (Homo sapiens, UniProt P31645); settings: cited from earlier work
[2] = target: norepinephrine transporter (Homo sapiens, UniProt P23975); settings: cited from earlier work
[3] = Chemical and radiochemical stability of the radiotracer preparation by HPLC; assay type: physicochemical; settings: preparation ready for i.v. injection (physiological saline, ethanol below 10%); HPLC D at regular 15-min intervals during 120 min
Description: Quality controls of [^18F]LBT-999 ([^18F]-10) were performed on an aliquot of the preparation ready for i.v. injection. The radiotracer preparation was a clear and colourless solution with a measured pH between 5 and 7.
Quality control of [^18F]LBT-999 ([^18F]-10). The radiotracer preparation was visually inspected for clarity, absence of colour and particulates. An aliquot of the preparation was removed for determination of pH using standard pH-paper. Chemical and radiochemical purities were also assessed on this aliquot by HPLC (HPLC D), with a sample of authentic 10 (tR : 2.25 min) which synthesis and characterization were disclosed in Dollé F et al., 2006. Particular attention was paid to the absence of non-radioactive precursor 9 (tR: 3.45 min). Chemical and radiochemical stability of the entire preparation was tested by HPLC (HPLC D) at regular 15-min intervals during 120 min. Specific radioactivity of the radiotracer was calculated from three consecutive HPLC (HPLC D) analyses (average) and determined as follows: The area of the UV absorbance peak corresponding to the radiolabelled product was measured (integrated) on the HPLC chromatogram and compared to a standard curve relating mass to UV absorbance.

Sequence of norepinephrine transporter (P23975 whole entry): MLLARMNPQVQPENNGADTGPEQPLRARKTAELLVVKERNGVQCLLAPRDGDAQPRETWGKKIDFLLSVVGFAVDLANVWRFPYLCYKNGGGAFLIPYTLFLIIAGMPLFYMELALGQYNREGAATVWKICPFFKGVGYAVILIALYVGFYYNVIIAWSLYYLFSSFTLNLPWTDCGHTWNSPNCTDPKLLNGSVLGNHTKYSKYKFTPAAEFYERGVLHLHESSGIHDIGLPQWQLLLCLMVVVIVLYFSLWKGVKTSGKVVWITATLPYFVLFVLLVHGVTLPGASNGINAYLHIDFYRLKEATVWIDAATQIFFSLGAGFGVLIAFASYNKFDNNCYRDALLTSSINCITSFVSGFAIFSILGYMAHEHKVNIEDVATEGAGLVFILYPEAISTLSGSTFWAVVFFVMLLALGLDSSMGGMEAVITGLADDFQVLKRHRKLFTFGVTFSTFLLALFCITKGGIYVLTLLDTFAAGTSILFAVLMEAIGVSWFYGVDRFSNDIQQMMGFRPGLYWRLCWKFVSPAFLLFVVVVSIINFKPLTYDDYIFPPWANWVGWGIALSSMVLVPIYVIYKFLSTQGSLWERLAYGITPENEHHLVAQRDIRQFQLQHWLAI
Sequence of serotonine transporter (P31645 whole entry): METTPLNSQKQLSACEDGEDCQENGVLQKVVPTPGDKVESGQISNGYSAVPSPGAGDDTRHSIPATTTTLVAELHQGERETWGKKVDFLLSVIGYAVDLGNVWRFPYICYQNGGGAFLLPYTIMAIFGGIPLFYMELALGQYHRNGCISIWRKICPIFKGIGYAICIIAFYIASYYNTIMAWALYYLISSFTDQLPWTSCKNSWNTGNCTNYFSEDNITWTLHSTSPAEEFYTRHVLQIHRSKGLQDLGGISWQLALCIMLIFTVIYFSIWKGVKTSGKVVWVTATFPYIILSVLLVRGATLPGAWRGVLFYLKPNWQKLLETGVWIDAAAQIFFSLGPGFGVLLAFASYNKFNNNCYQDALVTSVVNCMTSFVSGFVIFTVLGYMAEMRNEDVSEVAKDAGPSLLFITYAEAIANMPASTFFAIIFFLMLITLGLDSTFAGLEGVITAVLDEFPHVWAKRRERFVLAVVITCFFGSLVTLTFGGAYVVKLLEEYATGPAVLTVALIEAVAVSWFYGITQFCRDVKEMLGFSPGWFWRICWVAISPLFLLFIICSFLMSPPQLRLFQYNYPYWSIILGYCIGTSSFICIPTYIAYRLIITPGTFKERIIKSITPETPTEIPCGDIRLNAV

SMILES	Kd [1] [nM]	IC50 (serotonine transporter) [nM]	IC50 [2] [nM]	chemically and radiochemically stable [3]
COC(=O)[C@H]1[C@@H](c2ccc(C)cc2)C[C@@H]2CC[C@H]1N2C/C=C/CF [LBT-999, 8-((E)-4-fluoro-but-2-enyl)-3β-p-tolyl-8-aza-bicyclo[3.2.1]octane-2β-carboxylic acid methyl ester]	9	> 1000	> 1000	
COC(=O)[C@H]1[C@@H](c2ccc(C)cc2)C[C@@H]2CC[C@H]1N2C/C=C/C[18F] [[^18F]LBT-999, 8-((E)-4-[^18F]fluoro-but-2-enyl)-3β-p-tolyl-8-aza-bicyclo-[3.2.1]octane-2β-carboxylic acid methyl ester]				at least 120 minutes
